Data: patent US20190134005A1 (BioMarin Pharmaceutical Inc., priority 2016, published 2019)

target: T1, human CGT (Homo sapiens, UniProt Q16880); test: Assay 1: CGT Enzymatic Assay (RapidFire/MS/MS, 0.01% Tween 80); type: biochemical; details: Table 1, Compounds of Formula (I) and Formula (II); CGT enzymatic assay; read-out: IC50
T1 sequence (Q16880 21-541): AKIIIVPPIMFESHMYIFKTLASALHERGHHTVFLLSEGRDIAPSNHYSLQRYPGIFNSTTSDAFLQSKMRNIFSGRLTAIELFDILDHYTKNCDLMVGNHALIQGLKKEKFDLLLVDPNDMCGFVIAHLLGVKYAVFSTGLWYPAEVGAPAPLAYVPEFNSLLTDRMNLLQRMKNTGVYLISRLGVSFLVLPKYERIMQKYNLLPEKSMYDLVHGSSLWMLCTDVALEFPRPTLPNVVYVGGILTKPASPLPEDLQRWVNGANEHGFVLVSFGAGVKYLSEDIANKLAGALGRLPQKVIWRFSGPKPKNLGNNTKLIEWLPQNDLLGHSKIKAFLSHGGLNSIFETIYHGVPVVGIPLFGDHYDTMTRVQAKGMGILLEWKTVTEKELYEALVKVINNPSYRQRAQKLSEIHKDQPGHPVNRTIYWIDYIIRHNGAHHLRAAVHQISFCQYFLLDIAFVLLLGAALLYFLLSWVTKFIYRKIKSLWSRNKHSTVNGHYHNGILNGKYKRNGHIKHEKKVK

| SMILES | IC50 [nM] |
| --- | --- |
| CCCC[C@H]1N(c2ccc(Cl)cc2)C(=O)N(c2ccc(Cl)cc2)C1(O)c1cccc(C#N)c1 (stereo partly drawn) [Compound 116-2, 3-((5R)-5-butyl-1,3-bis(4-chlorophenyl)-4-hydroxy-2-oxoimidazolidin-4-yl)benzonitrile] | < 1000 |
| CCC1N(c2ccc(Cl)cc2)C(=O)N(c2ccc(Cl)cc2)C1(O)c1cccc(OC(F)F)c1 (stereo not shown) [Compound 118, 1,3-bis(4-chlorophenyl)-4-(3-(difluoromethoxy)phenyl)-5-ethyl-4-hydroxyimidazolidin-2-one] | < 1000 |
| CC[C@@H]1N(c2ccc(Cl)cc2)C(=O)N(c2ccc(Cl)cc2)C1(O)c1cccc(OC(F)F)c1 (stereo partly drawn) [Compound 118-1, (5S)-1,3-bis(4-chlorophenyl)-4-(3-(difluoromethoxy)phenyl)-5-ethyl-4-hydroxyimidazolidin-2-one] | < 1000 |
| CC[C@H]1N(c2ccc(Cl)cc2)C(=O)N(c2ccc(Cl)cc2)C1(O)c1cccc(OC(F)F)c1 (stereo partly drawn) [Compound 118-2, (5R)-1,3-bis(4-chlorophenyl)-4-(3-(difluoromethoxy)phenyl)-5-ethyl-4-hydroxyimidazolidin-2-one] | < 1000 |
| CCCC1N(c2ccc(Br)cc2)C(=O)N(c2ccc(Br)cc2)C1(O)c1cccc(Cl)c1 (stereo not shown) [Compound 119, 1,3-bis(4-bromophenyl)-4-(3-chlorophenyl)-4-hydroxy-5-propylimidazolidin-2-one] | < 1000 |
| CCC[C@@H]1N(c2ccc(Br)cc2)C(=O)N(c2ccc(Br)cc2)C1(O)c1cccc(Cl)c1 (stereo partly drawn) [Compound 119-1, (5S)-1,3-bis(4-bromophenyl)-4-(3-chlorophenyl)-4-hydroxy-5-propylimidazolidin-2-one] | < 1000 |
| CCC[C@H]1N(c2ccc(Br)cc2)C(=O)N(c2ccc(Br)cc2)C1(O)c1cccc(Cl)c1 (stereo partly drawn) [Compound 119-2, (5R)-1,3-bis(4-bromophenyl)-4-(3-chlorophenyl)-4-hydroxy-5-propylimidazolidin-2-one] | < 1000 |
| CC1(C)N(c2ccc(Br)cc2)C(=O)N(c2ccc(Br)cc2)C1(O)c1ccccc1 (stereo not shown) [Compound 120, 1,3-bis(4-bromophenyl)-4-hydroxy-5,5-dimethyl-4-phenylimidazolidin-2-one] | < 1000 |
| CC1(c2ccccc2)N(c2ccc(Cl)cc2)C(=O)N(c2ccc(Cl)cc2)C1(O)c1ccccc1 (stereo not shown) [Compound 121, 1,3-bis(4-chlorophenyl)-4-hydroxy-5-methyl-4,5-diphenylimidazolidin-2-one] | 1000 to 10000 |
| C[C@@]1(c2ccccc2)N(c2ccc(Cl)cc2)C(=O)N(c2ccc(Cl)cc2)[C@]1(O)c1ccccc1 [Compound 121-1, (4S,5S)-1,3-bis(4-chlorophenyl)-4-hydroxy-5-methyl-4,5-diphenylimidazolidin-2-one] | 10000 to 50000 |
| C[C@@]1(c2ccccc2)N(c2ccc(Cl)cc2)C(=O)N(c2ccc(Cl)cc2)[C@@]1(O)c1ccccc1 [Compound 121-2, (4R,5S)-1,3-bis(4-chlorophenyl)-4-hydroxy-5-methyl-4,5-diphenylimidazolidin-2-one] | > 50000 |
| C[C@]1(c2ccccc2)N(c2ccc(Cl)cc2)C(=O)N(c2ccc(Cl)cc2)[C@]1(O)c1ccccc1 [Compound 121-3, (4S,5R)-1,3-bis(4-chlorophenyl)-4-hydroxy-5-methyl-4,5-diphenylimidazolidin-2-one] | > 50000 |
| C[C@]1(c2ccccc2)N(c2ccc(Cl)cc2)C(=O)N(c2ccc(Cl)cc2)[C@@]1(O)c1ccccc1 [Compound 121-4, (4R,5R)-1,3-bis(4-chlorophenyl)-4-hydroxy-5-methyl-4,5-diphenylimidazolidin-2-one] | 1000 to 10000 |
| CCCC1N(c2ccc(Cl)cc2)C(=O)N(c2ccc(Cl)cc2)C1(O)CCC (stereo not shown) [Compound 122, 1,3-bis(4-chlorophenyl)-4-hydroxy-4,5-dipropylimidazolidin-2-one] | 10000 to 50000 |
| CC[C@@H]1N(c2ccc(F)cc2)C(=O)N(c2ccc(F)cc2)C1(O)c1cccc(C#N)c1 (stereo partly drawn) [Compound 123-1, 3-((5S)-5-ethyl-1,3-bis(4-fluorophenyl)-4-hydroxy-2-oxoimidazolidin-4-yl)benzonitrile] | 1000 to 10000 |
| CC[C@H]1N(c2ccc(F)cc2)C(=O)N(c2ccc(F)cc2)C1(O)c1cccc(C#N)c1 (stereo partly drawn) [Compound 123-2, 3-((5R)-5-ethyl-1,3-bis(4-fluorophenyl)-4-hydroxy-2-oxoimidazolidin-4-yl)benzonitrile] | < 1000 |
| CC(=O)c1cccc(C2(O)C(C)N(c3ccc(Cl)cc3)C(=O)N2c2ccc(Cl)cc2)c1 (stereo not shown) [Compound 124, 4-(3-acetylphenyl)-1,3-bis(4-chlorophenyl)-4-hydroxy-5-methylimidazolidin-2-one] | < 1000 |

| SMILES | IC50 [nM] |
| --- | --- |
| CN(C)c1cccc(C2(O)CN(c3ccc(Br)cc3)C(=O)N2c2ccc(Br)cc2)c1 (stereo not shown) [Compound 125, 1,3-bis(4-bromophenyl)-4-(3-(dimethylamino)phenyl)-4-hydroxyimidazolidin-2-one] | > 50000 |
| COc1cccc(C2(C)C(O)N(c3ccc(Br)cc3)C(=O)N2c2ccc(Br)cc2)c1 (stereo not shown) [Compound 126, 1,3-bis(4-bromophenyl)-5-hydroxy-4-(3-methoxyphenyl)-4-methylimidazolidin-2-one] | 1000 to 10000 |
| CC(C)(C)c1cccc(C2(O)CN(c3ccc(Br)cc3)C(=O)N2c2ccc(Br)cc2)c1 (stereo not shown) [Compound 127, 1,3-bis(4-bromophenyl)-4-(3-(tert-butyl)phenyl)-4-hydroxyimidazolidin-2-one] | 10000 to 50000 |
| CC(C)(C)c1cccc(C2(O)CN(c3ccc(Cl)cc3)C(=O)N2c2ccc(Cl)cc2)c1 (stereo not shown) [Compound 128, 4-(3-(tert-butyl)phenyl)-1,3-bis(4-chlorophenyl)-4-hydroxyimidazolidin-2-one] | 10000 to 50000 |
| CC1N(c2ccc(Cl)cc2)C(=O)N(c2ccc(Cl)cc2)C1(O)c1cccc(OC(F)(F)F)c1 (stereo not shown) [Compound 129, 1,3-bis(4-chlorophenyl)-4-hydroxy-5-methyl-4-(3-(trifluoromethoxy)phenyl)imidazolidin-2-one] | < 1000 |
| C[C@H]1N(c2ccc(Cl)cc2)C(=O)N(c2ccc(Cl)cc2)C1(O)c1cccc(OC(F)(F)F)c1 (stereo partly drawn) [Compound 129-2, (5R)-1,3-bis(4-chlorophenyl)-4-hydroxy-5-methyl-4-(3-(trifluoromethoxy)phenyl)imidazolidin-2-one] | < 1000 |
| CC1N(c2ccc(F)cc2)C(=O)N(c2ccc(F)cc2)C1(O)c1cccc(OC(F)(F)F)c1 (stereo not shown) [Compound 130, 1,3-bis(4-fluorophenyl)-4-hydroxy-5-methyl-4-(3-(trifluoromethoxy)phenyl)imidazolidin-2-one] | < 1000 |
| C[C@@H]1N(c2ccc(F)cc2)C(=O)N(c2ccc(F)cc2)C1(O)c1cccc(OC(F)(F)F)c1 (stereo partly drawn) [Compound 130-1, (5S)-1,3-bis(4-fluorophenyl)-4-hydroxy-5-methyl-4-(3-(trifluoromethoxy)phenyl)imidazolidin-2-one] | < 1000 |
| C[C@H]1N(c2ccc(F)cc2)C(=O)N(c2ccc(F)cc2)C1(O)c1cccc(OC(F)(F)F)c1 (stereo partly drawn) [Compound 130-2, (5R)-1,3-bis(4-fluorophenyl)-4-hydroxy-5-methyl-4-(3-(trifluoromethoxy)phenyl)imidazolidin-2-one] | < 1000 |
| CCC1N(c2ccc(F)cc2)C(=O)N(c2ccc(F)cc2)C1(O)c1cccc(OC(F)(F)F)c1 (stereo not shown) [Compound 131, 5-ethyl-1,3-bis(4-fluorophenyl)-4-hydroxy-4-(3-(trifluoromethoxy)phenyl)imidazolidin-2-one] | < 1000 |
| N#Cc1cccc(C2(O)C(CC3CC3)N(c3ccc(Cl)cc3)C(=O)N2c2ccc(Cl)cc2)c1 (stereo not shown) [Compound 132, 3-(1,3-bis(4-chlorophenyl)-5-(cyclopropylmethyl)-4-hydroxy-2-oxoimidazolidin-4-yl)benzonitrile] | < 1000 |
| CC1(C)N(c2ccc(Cl)cc2)C(=O)N(c2ccc(Cl)cc2)C1(O)c1cccc(OC(F)(F)F)c1 (stereo not shown) [Compound 133, 1,3-bis(4-chlorophenyl)-4-hydroxy-5,5-dimethyl-4-(3-(trifluoromethoxy)phenyl)imidazolidin-2-one] | < 1000 |
| CC1(C)N(c2ccc(Cl)cc2)C(=O)N(c2ccc(Cl)cc2)C1(O)c1cccc(C(F)(F)F)c1 (stereo not shown) [Compound 134, 1,3-bis(4-chlorophenyl)-4-hydroxy-5,5-dimethyl-4-(3-(trifluoromethyl)phenyl)imidazolidin-2-one] | < 1000 |
| N#Cc1cccc(C2(O)N(c3ccc(Cl)cc3)C(=O)N(c3ccc(Cl)cc3)C23CCCC3)c1 (stereo not shown) [Compound 135, 3-(1,3-bis(4-chlorophenyl)-4-hydroxy-2-oxo-1,3-diazaspiro[4.4]nonan-4-yl)benzonitrile] | < 1000 |
| CC(=O)c1cccc(C2(O)[C@@H](C)N(c3ccc(Cl)cc3)C(=O)N2c2ccc(Cl)cc2)c1 (stereo partly drawn) [Compound 136-2, (5R)-4-(3-acetylphenyl)-1,3-bis(4-chlorophenyl)-4-hydroxy-5-methylimidazolidin-2-one] | < 1000 |
| CC(O)c1cccc(C2(O)C(C)N(c3ccc(Cl)cc3)C(=O)N2c2ccc(Cl)cc2)c1 (stereo not shown) [Compound 137, 1,3-bis(4-chlorophenyl)-4-hydroxy-4-(3-(1-hydroxyethyl)phenyl)-5-methylimidazolidin-2-one] | < 1000 |
| CC1(C)N(c2ccc(Cl)cc2)C(=O)N(c2ccc(Cl)cc2)C1(O)c1cccc(C#N)c1 (stereo not shown) [Compound 138, 3-(1,3-bis(4-chlorophenyl)-4-hydroxy-5,5-dimethyl-2-oxoimidazolidin-4-yl)benzonitrile] | < 1000 |
